Measurements published in ChEMBL document CHEMBL5528010, “The discovery of aryl-2-nitroethyl triamino pyrimidines as anti-Trypanosoma brucei agents” (Eur J Med Chem, 2024).
pEC50, pIC50: −log10 of the molar value.

Test system: not listed separately
Assay: Half life in BALB/c mouse at 20 mg/kg, po measured upto 24 hrs by LC-MS/MS analysis
Format: ADME, organism-based
Details: in vivo

| half-life | SMILES |
| --- | --- |
| 2.1 h | Nc1nc(N)c(C(C[N+](=O)[O-])c2cccc3c2OCO3)c(N)n1 (stereo not given) |
| 4.5 h | Nc1nc(N)c(C(C[N+](=O)[O-])c2ccc3c(c2)OCCO3)c(N)n1 (stereo not given) |

Test system: not listed separately
Assay: Cmax in BALB/c mouse at 20 mg/kg, po measured upto 24 hrs by LC-MS/MS analysis
Format: ADME, organism-based
Details: in vivo

| Cmax | SMILES |
| --- | --- |
| 399 ng/mL | Nc1nc(N)c(C(C[N+](=O)[O-])c2cccc3c2OCO3)c(N)n1 (stereo not given) |
| 25 ng/mL | Nc1nc(N)c(C(C[N+](=O)[O-])c2ccc3c(c2)OCCO3)c(N)n1 (stereo not given) |

Test system: not listed separately
Assay: Selectivity index, ratio of CC50 for human THP-1 cells to EC50 for bloodstream form Trypanosoma brucei
Format: toxicity
Details: read-out: Ratio CC50/EC50

| SMILES | selectivity ratio |
| --- | --- |
| Nc1nc(N)c(C(C[N+](=O)[O-])c2ccco2)c(N)n1 (stereo not given) | 10 |
| Nc1nc(N)c(C(C[N+](=O)[O-])c2cccc3c2OCO3)c(N)n1 (stereo not given) | 10 |
| Nc1nc(N)c(C(C[N+](=O)[O-])c2ccc3c(c2)OCCO3)c(N)n1 (stereo not given) | 11 |

Test system: Leishmania infantum
Assay: Antiparasitic activity against Leishmania infantum intracellular amastigotes MHOM/BR/1972/BH46 infected in human THP-1 cells assessed as inhibition of parasitic growth at 50 uM pre-infected for 24 hrs followed by compound addition and measured after 48 hrs relative to control
Format: functional
Details: MHOM/BR/1972/BH46, THP-1

| SMILES | inhibition at 50 µM |
| --- | --- |
| Nc1nc(N)c(C(C[N+](=O)[O-])c2cccc3c2OCO3)c(N)n1 (stereo not given) | 36% |
| Nc1nc(N)c(C(C[N+](=O)[O-])c2ccc3c(c2)OCCO3)c(N)n1 (stereo not given) | 54.4% |

Test system: not listed separately
Assay: Inhibition of N-terminal his 6 tagged recombinant Trypanosoma brucei PTR1 expressed in Escherichia coli BL21 (DE3) cells preincubated for 10 mins followed by NADPH addition and measured after 10 to 50 mins by multilabel plate reader method
Format: cell-based
Details: not given

| SMILES | pIC50 |
| --- | --- |
| Nc1nc(N)c(C(C[N+](=O)[O-])c2ccco2)c(N)n1 (stereo not given) | 6.80 |
| Nc1nc(N)c(C(C[N+](=O)[O-])c2cccc3c2OCO3)c(N)n1 (stereo not given) | 7.52 |
| Nc1nc(N)c(C(C[N+](=O)[O-])c2ccc3c(c2)OCCO3)c(N)n1 (stereo not given) | 6.64 |

Test system: not listed separately
Assay: Tmax in BALB/c mouse at 20 mg/kg, po measured upto 24 hrs by LC-MS/MS analysis
Format: ADME, organism-based
Details: in vivo

| Tmax | SMILES |
| --- | --- |
| 0.5 h | Nc1nc(N)c(C(C[N+](=O)[O-])c2cccc3c2OCO3)c(N)n1 (stereo not given) |
| 1 h | Nc1nc(N)c(C(C[N+](=O)[O-])c2ccc3c(c2)OCCO3)c(N)n1 (stereo not given) |

Target: T1, Pteridine reductase 1 (Leishmania major, UniProt Q01782)
T1 sequence (Q01782 whole entry): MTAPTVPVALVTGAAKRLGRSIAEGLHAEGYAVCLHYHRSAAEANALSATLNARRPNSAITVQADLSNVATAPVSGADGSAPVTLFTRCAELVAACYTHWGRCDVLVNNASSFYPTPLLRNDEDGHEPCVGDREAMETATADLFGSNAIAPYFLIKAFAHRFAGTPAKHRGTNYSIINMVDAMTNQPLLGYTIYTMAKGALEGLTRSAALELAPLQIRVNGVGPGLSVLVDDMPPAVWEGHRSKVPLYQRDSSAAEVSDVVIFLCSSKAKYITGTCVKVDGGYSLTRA
Assay: Inhibition of N-terminal his 6 tagged recombinant Leishmania major PTR1 expressed in Escherichia coli BL21 (DE3) cells preincubated for 10 mins followed by NADPH addition and measured after 10 to 50 mins by multilabel plate reader method
Details: not given

| pIC50 | SMILES |
| --- | --- |
| 4.20 | Nc1nc(N)c(C(C[N+](=O)[O-])c2ccco2)c(N)n1 (stereo not given) |
| 4.32 | Nc1nc(N)c(C(C[N+](=O)[O-])c2cccc3c2OCO3)c(N)n1 (stereo not given) |
| 5.60 | Nc1nc(N)c(C(C[N+](=O)[O-])c2ccc3c(c2)OCCO3)c(N)n1 (stereo not given) |

Test system: THP-1
Assay: Cytotoxicity against human THP-1 cells assessed as reduction in cell viability measured after 72 hrs by MTT assay
Format: functional
Details: not given

| SMILES | CC50 |
| --- | --- |
| Nc1nc(N)c(C(C[N+](=O)[O-])c2ccco2)c(N)n1 (stereo not given) | 50 µM |
| Nc1nc(N)c(C(C[N+](=O)[O-])c2cccc3c2OCO3)c(N)n1 (stereo not given) | 12.5 µM |
| Nc1nc(N)c(C(C[N+](=O)[O-])c2ccc3c(c2)OCCO3)c(N)n1 (stereo not given) | 12.5 µM |

Test system: not listed separately
Assay: AUC last in BALB/c mouse at 20 mg/kg, po measured upto 24 hrs by LC-MS/MS analysis
Format: ADME, organism-based
Details: in vivo

| AUC(0-t) at 24 h | SMILES |
| --- | --- |
| 2700 ng·h/mL | Nc1nc(N)c(C(C[N+](=O)[O-])c2cccc3c2OCO3)c(N)n1 (stereo not given) |
| 107 ng·h/mL | Nc1nc(N)c(C(C[N+](=O)[O-])c2ccc3c(c2)OCCO3)c(N)n1 (stereo not given) |

Test system: Trypanosoma brucei
Assay: Antiparasitic activity against blood stream form Trypanosoma brucei assessed as parasitic growth inhibition incubated for 72 hrs by resazurin dye based fluorescence analysis
Format: functional, organism-based
Details: not given

| pEC50 | SMILES |
| --- | --- |
| 5.30 | Nc1nc(N)c(C(C[N+](=O)[O-])c2ccco2)c(N)n1 (stereo not given) |
| 5.92 | Nc1nc(N)c(C(C[N+](=O)[O-])c2cccc3c2OCO3)c(N)n1 (stereo not given) |
| 5.95 | Nc1nc(N)c(C(C[N+](=O)[O-])c2ccc3c(c2)OCCO3)c(N)n1 (stereo not given) |
